IC50 data for 54 compounds are collected here from US8946266B2, “Substituted triazole and imidazole derivatives as gamma secretase modulators” (Janssen Pharmaceuticals, Inc., priority 2009, dated 2015).

In assay [1] the test system is Aβ42. Description: γ-secretase-modulating activity, Method 2: Aβ42 Alphalisa in supernatant of SKNBE2 cells carrying APP 695-wild type (Table 3b). In kind it is cell-based. Conditions: overnight. The method in brief: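 SKNBE2 cells expressing wild-type APP695 were incubated overnight at 37° C. with test compound. Secreted Aβ42 was then measured by AlphaLISA, using a C-terminal Aβ42 antibody paired with an N-terminal Aβ antibody. IC50 came from a 4-parameter fit of percent of compound-free control.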
(In general: Bead proximity is the source of the signal in Alpha formats.)

The subject of assay [2] is Aβtotal. Description: γ-secretase-modulating activity, Method 2: Aβtotal Alphalisa in supernatant of SKNBE2 cells carrying APP 695-wild type (Table 3b). In kind it is cell-based. To be noted: overnight, read-out: IC50 Aβtot. Summed up:
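SKNBE2 cells expressing wild-type APP 695 were incubated overnight at 37 °C, 5% CO2 with test compound at a range of concentrations. Aβtotal in supernatant was measured by AlphaLISA sandwich (N-terminal JRF/AβN/25 acceptor, biotinylated mid-region 4G8 donor); IC50 from 4-parameter fit of percent control versus log concentration.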

pIC50: −log10 of the molar value. Read-outs that look alike come from different tables or passages of the source.

What is called pIC50 is the negative decadic logarithm of the IC50, by convention in mol/L. As for `COc1cc(-c2nc(N(C)c3ccc(F)cc3C(F)(F)F)nn2C)ccc1-n1cnc(C)c1` [Compound 53], the negative-log IC50 (pIC50) in assay [1] and in assay [2] was less than 5.00 each time.
On to `COc1cc(-c2nc(Nc3ccc(Cl)cc3C(F)(F)F)n(C)n2)ccc1-n1cnc(C)c1` [Compound 156], for which the negative logarithm of the IC50 (pIC50) in assay [1] is 7.48; in assay [2], less than 5.00.
Consider `COc1cc(-c2nc(Nc3cc(C(F)(F)F)ccc3C)n(C)n2)ccc1-n1cnc(C)c1` [Compound 131], for which the pIC50 in assay [1] is 8.10; in assay [2] it was 5.20.
The like results for `COc1cc(Cl)ccc1Nc1nc(-c2ccc(-n3cnc(C)c3)c(OC)c2)nn1C` [Compound 188] were, in that order, 6.75 and less than 5.00.
Consider `COc1cc(-c2nc3c(-c4ccccc4OC(F)(F)F)cccn3n2)ccc1-n1cnc(C)c1` [Compound 288], for which the negative logarithm of the IC50 (pIC50) in assay [1] was 6.82; in assay [2], less than 5.00.
The like results for `COc1cc(-c2nc(Nc3cccc(NC(C)=O)c3)n(C)n2)ccc1-n1cnc(C)c1` [Compound 222] were, in that order, 5.94 and less than 5.00.
On to `CCOc1cc(C)c(Nc2nc(-c3ccc(-n4cnc(C)c4)c(OC)c3)nn2C)cc1C(C)C` [Compound 328], for which the pIC50 in assay [1] was 8.15; in assay [2], 6.84.
The like results for `COc1cc(-c2nc(-c3ccc(F)cc3)n(C3CCCC3)n2)ccc1-n1cnc(C)c1` [Compound 41] were, in that order, 6.39 and less than 5.00.
Consider `COc1cc(-c2nc(C)n(-c3cccc(C(F)(F)F)c3)n2)ccc1-n1cnc(C)c1` [Compound 30], for which the pIC50 in assay [1] was 6.53; in assay [2], less than 5.00.
The like results for `COc1ccc(F)cc1Nc1nc(-c2ccc(-n3cnc(C)c3)c(OC)c2)nn1C` [Compound 190] were, in that order, 6.67 and less than 5.00.
For the compound `COc1ccc(Cl)c(Nc2nc(-c3ccc(-n4cnc(C)c4)c(OC)c3)nn2C)c1` [Compound 189], the pIC50 in assay [1] is 7.72; in assay [2] it was less than 5.00.
Take `COc1cc(-c2nc(Nc3cc(C(F)(F)F)c(Cl)cc3F)n(C)n2)ccc1-n1cnc(C)c1` [Compound 212]: the pIC50 in assay [1] is 7.77; in assay [2], less than 5.00.
For `COc1cc(-c2nc(Oc3ccccc3Cl)n(C)n2)ccc1-n1cnc(C)c1` [Compound 248], the values for the pIC50 in assay [1] and in assay [2] were 6.41 and less than 5.00, respectively.
The like results for `COc1cc(-c2nc(Nc3ccnc(C(F)(F)F)c3)n(C)n2)ccc1-n1cnc(C)c1` [Compound 235] were, in that order, 6.88 and less than 5.00.
Taken in the same sequence, the figures for `COc1cc(-c2nc(Nc3cc(F)c(F)c(F)c3)nn2C)ccc1-n1cnc(C)c1` [Compound 61] were 5.32 and less than 5.00.
For the compound `COc1cc(-c2nc(N3CCCC(c4ccccc4)C3)n(C(C)C)n2)ccc1-n1cnc(C)c1` (stereo not drawn) [Compound 79], the pIC50 in assay [1] (Homo sapiens) is 7.44; in assay [2] (Homo sapiens), 5.18.
On to `COc1cc(-c2nc(Nc3ccc(C)nc3)n(C)n2)ccc1-n1cnc(C)c1` [Compound 238], for which the pIC50 in assay [1] is 5.80; in assay [2] it was less than 5.00.
The like results for `COc1cc(-c2nc(Nc3ccc(C(F)(F)F)cc3)n(C)n2)ccc1-n1cnc(C)c1` [Compound 151] were, in that order, 7.57 and 5.39.
Turning to `COc1cc(-c2nc3n(n2)CCCC3c2cccc(OC(F)(F)F)c2)ccc1-n1cnc(C)c1` (stereo not drawn) [Compound 267], the pIC50 was 7.31 in assay [1] and less than 5.00 in assay [2].
The like results for `COc1cc(-c2nc(Nc3cccc(C(F)(F)F)c3)n(CC(F)(F)F)n2)ccc1-n1cnc(C)c1` [Compound 145] were, in that order, 7.42 and 5.65.
For `COc1cc(-c2n[nH]c(C(CCCCCl)c3ccccc3C(F)(F)F)n2)ccc1-n1cnc(C)c1` (stereo not drawn) [Compound 70], the negative logarithm of the IC50 (pIC50) was 6.51 in assay [1] and less than 5.00 in assay [2].
The like results for `COc1cc(-c2nc3n(n2)CCOC3c2ccc(F)cc2C)ccc1-n1cnc(C)c1` (stereo not drawn) [Compound 305] were, in that order, 6.19 and less than 5.00.
Turning to `COc1cc(-c2nc(Nc3cc(Cl)ccc3C(F)(F)F)n(C)n2)ccc1-n1cnc(C)c1` [Compound 143], the figures for the pIC50 in assay [1] and in assay [2] were 7.52 and less than 5.00, respectively.
The like results for `COc1cc(-c2nc(Nc3c(F)cccc3F)n(C)n2)ccc1-n1cnc(C)c1` [Compound 116] were, in that order, 6.70 and less than 5.00.
Regarding `COc1cc(-c2nc3n(n2)CCCC3c2cccc(F)c2)ccc1-n1cnc(C)c1` (stereo not drawn) [Compound 252], the negative-log IC50 (pIC50) in assay [1] is 6.62; in assay [2], less than 5.00.
On to `COc1cc(-c2nc(Nc3cccnc3OC)n(C)n2)ccc1-n1cnc(C)c1` [Compound 241], for which the negative-log IC50 (pIC50) in assay [1] is 6.13; in assay [2], less than 5.00.
For `COc1cc(-c2nc(Nc3cc(NC(C)=O)ccc3F)n(C)n2)ccc1-n1cnc(C)c1` [Compound 221], the results for the negative-log IC50 (pIC50) in assay [1] and in assay [2] were 6.15 and less than 5.00, respectively.
On to `COc1cc(-c2n[nH]c(C3CCCCC3)n2)ccc1-n1cnc(C)c1` [Compound 33], for which the pIC50 in assay [1] is 6.57; in assay [2] it was less than 5.00.
With `COc1cc(-c2nc3n(n2)CCOC3c2ccccc2C(F)(F)F)ccc1-n1cnc(C)c1` (stereo not drawn) [Compound 279], the pIC50 in assay [1] (Homo sapiens) is 7.21; in assay [2] (Homo sapiens), less than 5.00.
For `COc1cc(-c2nc(-c3ccccc3Cl)n(CC(F)(F)F)n2)ccc1-n1cnc(C)c1` [Compound 86], the pIC50 was 6.71 in assay [1] and less than 5.00 in assay [2].
Taken in the same sequence, the figures for `COc1cc(-c2nc(Nc3ccnc(Cl)c3)n(C)n2)ccc1-n1cnc(C)c1` [Compound 234] were 6.02 and less than 5.00.
Taken in the same sequence, the figures for `COc1cc(-c2nc(Nc3cccc(Cl)c3OC)n(C)n2)ccc1-n1cnc(C)c1` [Compound 194] were 7.19 and less than 5.00.
On to `COc1cc(-c2nc(-c3ccc4ccccc4n3)n(C)n2)ccc1-n1cnc(C)c1` [Compound 326], for which the results for the pIC50 in assay [1] and in assay [2] were 5.51 and less than 5.00, respectively.
Taken in the same sequence, the figures for `COc1cc(-c2nc3c(-c4ccccc4Cl)cccn3n2)ccc1-n1cnc(C)c1` [Compound 286] were 6.84 and 5.00.
Taken in the same sequence, the figures for `COc1cc(-c2nc3n(n2)CCOC3c2ccccc2OC(F)(F)F)ccc1-n1cnc(C)c1` (stereo not drawn) [Compound 346] were 7.02 and less than 5.00.
In the case of `Cc1cn(-c2ccc(-c3nc(Nc4ccccc4C(F)(F)F)n(C)n3)cc2C#N)cn1` [Compound 321], the negative-log IC50 (pIC50) in assay [1] is 6.74; in assay [2], less than 4.82.
The like results for `COc1cccc(-c2nc(-c3ccc(-n4cnc(C)c4)c(OC)c3)nn2C)c1` [Compound 36] were, in that order, 6.24 and less than 5.00.
The like results for `COc1cc(-c2nc(Nc3cc(C(F)(F)F)c(F)cc3F)n(C)n2)ccc1-n1cnc(C)c1` [Compound 172] were, in that order, 7.21 and less than 5.00.
For `COc1nc(-c2nc(Nc3cc(C(F)(F)F)ccc3Cl)n(C)n2)ccc1-n1cnc(C)c1` [Compound 160], the negative logarithm of the IC50 (pIC50) in assay [1] was 8.22; in assay [2] it was less than 5.00.
Consider `COc1cc(-c2nc(Nc3ccc(F)cc3Cl)n(C)n2)ccc1-n1cnc(C)c1` [Compound 109], for which the negative-log IC50 (pIC50) is 6.93 in assay [1] and less than 5.00 in assay [2].
As to `COc1cc(-c2nc(-c3ccccc3C(F)(F)F)nn2C)ccc1-n1cnc(C)c1` [Compound 54], the pIC50 is 5.38 in assay [1] and less than 5.00 in assay [2].
For `COc1cc(-c2nc3n(n2)CCCC3(O)c2ccc(F)cc2C)ccc1-n1cnc(C)c1` (stereo not drawn) [Compound 269], the negative logarithm of the IC50 (pIC50) was 6.83 in assay [1] (Homo sapiens) and less than 5.00 in assay [2] (Homo sapiens).
For `COc1cc(-c2nc(CNc3cccc(C(F)(F)F)c3)n(C)n2)ccc1-n1cnc(C)c1` [Compound 311], the pIC50 in assay [1] was 6.73; in assay [2], 5.13.
Taken in the same sequence, the figures for `COc1cc(-c2nc3n(n2)CCC[C@H]3c2cc(C(F)(F)F)ccc2C)ccc1-n1cnc(C)c1` [Compound 341] were 7.92 and 5.11.
`COc1cc(-c2nc3n(n2)CCN(C(C)=O)C3c2cccc(C(F)(F)F)c2)ccc1-n1cnc(C)c1` (stereo not drawn) [Compound 277]: the negative logarithm of the IC50 (pIC50) is 6.18 in assay [1] and less than 5.00 in assay [2].
The like results for `COc1cc(-c2nc(Nc3ccc(F)cc3)n(C)n2)ccc1-n1cnc(C)c1` [Compound 106] were, in that order, 6.88 and less than 5.00.
Taken in the same sequence, the figures for `COc1cc(-c2nc(C3CCCCC3)n(C)n2)ccc1-n1cnc(C)c1` [Compound 34] were 6.62 and less than 5.00.
In the case of `COc1cc(-c2nc(-c3ccc(F)cc3)n(C(C)C)n2)ccc1-n1cnc(C)c1` [Compound 5], the pIC50 in assay [1] (Homo sapiens) was 6.77; in assay [2] (Homo sapiens), less than 5.00.
As for `COc1cc(-c2nc(Nc3ccc(C#N)cc3)n(C)n2)ccc1-n1cnc(C)c1` [Compound 225], the pIC50 in assay [1] was 5.84; in assay [2] it was less than 5.00.
In the case of `COc1cc(-c2nc(Nc3ccc4c(c3)OC(F)(F)O4)n(C)n2)ccc1-n1cnc(C)c1` [Compound 231], the negative logarithm of the IC50 (pIC50) in assay [1] is 7.25; in assay [2], 5.23.
`COc1cc(-c2nc(N3CCC(c4cccc(C(F)(F)F)c4)C3)n(C(C)C)n2)ccc1-n1cnc(C)c1` (racemic) [Compound 74]: the pIC50 in assay [1] was 6.60; in assay [2] it was 5.19.
On to `COc1cc(-c2nc(-c3cc(Cl)ccc3C)nn2C)ccc1-n1cnc(C)c1` [Compound 298], for which the negative logarithm of the IC50 (pIC50) in assay [1] was 5.51; in assay [2] it was less than 5.00.
For the compound `COc1cc(-c2nc(N3CCOCC3)n(-c3ccc(F)cc3)n2)ccc1-n1cnc(C)c1` [Compound 71], the pIC50 in assay [1] (Homo sapiens) is 5.94; in assay [2] (Homo sapiens), less than 5.00.
Consider `COc1cc(-c2nc(-c3cc(C(F)(F)F)ccc3C)n(C)n2)ccc1-n1cnc(C)c1` [Compound 72], for which the pIC50 was 6.54 in assay [1] and less than 5.00 in assay [2].
